# Assay: gradient 5% acetonitrile 3 min, to 50% in 2 min, to 85% in 15 min, held 3 min, 100 µL/min
# Details: column: Zorbax Extend-C18 2.1 x 50 mm; eluents: water / acetonitrile, 0.1% formic acid
# Procedure, shortened: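 The system's dead and dwell volumes were 40 μL and 900 μL, with a Zorbax Extend-C18 column (2.1 × 50 mm, 1.8 μm) run at 100 μL/min in water and acetonitrile containing 0.1% formic acid each. Pure standards were analyzed in mixtures of ~100 molecules by HPLC–quadrupole time-of-flight mass spectrometry in positive and negative ionization mode. Retention time was assigned from computationally picked, manually inspected adduct peaks.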
row,Structure (SMILES),RP-LC retention time
1,Cc1cc(C(=O)Nc2ccc3c(c2)OCO3)c2c(C)nn(-c3cccc(F)c3)c2n1,1170 s
2,COc1ccc(N2CCN(c3ncc4c(n3)CCN(Cc3cccc(F)c3)C4)CC2)cc1,648 s
3,Cn1nc(CNC(=O)c2ccc(Br)cc2)c2ccccc21,840 s
4,COc1ccc(NC(=O)Cc2csc3nc(-c4ccccc4)cn23)cc1,751 s
5,Cc1nc(-c2cn(C)c3ncccc23)sc1C(=O)NCc1ccccc1C(F)(F)F,998 s
6,COc1ccc(-c2nc(C)cc(C)c2CNS(=O)(=O)c2ccc(C)cc2)cc1,670 s
7,CCCN1C(=O)c2[nH]nc(-c3cccc(OC)c3)c2C1c1cccnc1 (configuration not stated),669 s
8,CC(=O)Nc1ccc(C2(C(=O)NCc3cccc(Cl)c3)CCC2)cc1,785 s
9,COc1ccc(S(=O)(=O)N2CC=C(c3cn(C(C)C)c4ncccc34)CC2)cc1,1070 s
10,CCc1ccc(-c2csc(Nc3ccc(F)cn3)n2)cc1,1190 s
11,CCCNC(=O)c1nnn(Cc2ccc(Cl)cc2)c1-n1cccc1,980 s
12,CCN1CCN(c2cc(C)nc3nc(-c4ccc(C(C)(C)C)cc4)nn23)CC1,677 s
13,O=C(c1ccc(CS(=O)c2ccc(Cl)cc2)o1)N1CCN(c2ccccn2)CC1 (configuration not stated),582 s
14,C=C[C@H]1CN2CCC1C[C@@H]2C(O)c1ccnc2ccccc12 (some centres not stated),576 s
15,Cc1ccc(C)c(C(=O)Nc2cccn3c(C)nnc23)c1,695 s
16,O=C(NCc1ccccc1)c1ccc(-c2cccs2)nc1,884 s
17,CC(=O)Nc1ccc(-n2cnc(C(=O)NCc3ccc(F)cc3)c2)nc1,681 s
18,Cc1ccc(Cn2nc3c(S(=O)(=O)N4CCN(c5ccc(F)cc5)CC4)cccn3c2=O)c(C)c1,1080 s
19,O=c1c2cc(-c3ccc(F)cc3)nn2ccn1Cc1ccc(Cl)cc1,1090 s
20,Brc1cn2c(Nc3ccc4c(c3)OCO4)c(-c3ccccc3)nc2cn1,940 s
21,C=CCN1C(=O)COc2ccc(-c3csc(NC(=O)c4ccc(OC)c(OC)c4)n3)cc21,943 s
22,Cc1c(Cl)cccc1NC(=O)C(=O)NCC1(c2ccc(F)cc2)CC1,1110 s
23,O=C(NCCn1c(-c2ccccc2)nc2cccnc21)NCc1ccc(F)cc1,684 s
24,CC(=O)c1ccc(NC(=O)Cn2nc3c4cc(-c5ccc(Cl)cc5)nn4ccn3c2=O)cc1,894 s
25,COc1ccc(Cl)cc1NC(=O)c1c(C)oc2c1C1=NCCN1C=N2,674 s
26,CNC(=O)c1cc(-c2cccc(OC)c2)n[nH]1,665 s
27,COc1cc(NC(=O)CN2C(=O)C(C)(C)c3cc(C)ccc32)cc(OC)c1OC,823 s

# Continued, values first:
row,RP-LC retention time,Structure (SMILES)
1,728 s,CCOC(=O)C1CCN(C(=O)C2c3cc(OC)c(OC)cc3C(=O)N(C)C2c2cccs2)CC1 (configuration not stated)
2,722 s,Cn1ccc(C(=O)N2CC(n3cc(COc4ccc(F)cc4)nn3)C2)n1
3,646 s,C=CCNC(=O)c1cn(-c2cc(-c3nc(CC)no3)ccn2)cn1
4,752 s,O=C(NC1CCN(c2cc(-c3ccccc3)[nH]n2)C1)c1ccc(Br)cc1 (configuration not stated)
5,678 s,CNC(=O)N1CCc2nc(-c3ccccc3)ncc2C1
6,915 s,Cc1nc(-c2ccc3c(c2)n(CC(=O)NCCC2=CCCCC2)c(=O)n3C(C)C)no1
7,661 s,O=C(c1cnccn1)N1CCCCC1c1nc(-c2ccncc2)no1 (configuration not stated)
8,744 s,CCc1ccccc1NC(=O)N1CCC(n2cnc3ccccc3c2=O)CC1
9,803 s,CCn1cnc(S(=O)(=O)N2CCCC(C(=O)Nc3cc(C)cc(C)c3)C2)c1 (configuration not stated)
10,842 s,CC(NC(=O)CCCn1c2ccccc2c2cnn(C)c(=O)c21)c1ccc2c(c1)OCCO2 (configuration not stated)
11,649 s,CCOc1ccc(NC(=O)N2CCN(c3nc4ccccc4n3C)CC2)cc1
12,644 s,CCOCC(=O)N1CC(c2nc(CCOCC3CCOCC3)no2)C1
13,730 s,Cc1ccc(-c2cc3c(=O)n(Cc4noc(CN5CCCCC5C)n4)ccn3n2)cc1C (configuration not stated)
14,956 s,CC1=NS(=O)(=O)N(C)C=C1C(=O)OCc1nc(Cc2ccc(C)cc2)no1
15,845 s,COCCN1C(=O)c2ccccc2C(C(=O)NCCc2c[nH]c3ccccc23)C12CCCC2 (configuration not stated)
16,856 s,COc1ccc(CCc2nc3nccc(-c4ccc(OC)c(OC)c4)n3n2)cc1
17,732 s,Cc1noc(C2CN(C(=O)Nc3ccccc3Cl)CC23CCOCC3)n1 (configuration not stated)
18,1060 s,COc1ccc(N2CCN(c3cc(SCC(=O)Nc4ccc(F)c(Cl)c4)ncn3)CC2)cc1
19,569 s,CCN1CCN(CCCNC(=O)c2cc3sccc3n2C)CC1
20,785 s,CCc1nc2cc(N3CCC(C(=O)NC4CCCC4)CC3)cnc2nc1CC

row,RP-LC retention time,Structure (SMILES)
1,1040 s,CCn1c(C)c(C(=O)C(C)N(C(=O)c2ccc(C)cc2)C2CC2)c(C)c1C(=O)OC (configuration not stated)
2,680 s,Cc1ccc(NC(=O)Cn2c(N3CCOCC3)nc(C)cc2=O)cc1
3,648 s,O=C(Nc1ccc2c(c1)OCCO2)N1CCC(n2c(-c3ccoc3)nc3cccnc32)C1 (configuration not stated)
4,891 s,Cc1cccc(NC(=O)C2CCCN2S(=O)(=O)c2cc3c(cc2Cl)NC(=O)CO3)c1C (configuration not stated)
5,698 s,CC(C)CCC(=O)N1CCC2(CC1)CC(C)(O)CCO2 (configuration not stated)
6,755 s,COc1cc2c(cc1CNC(=O)c1ccco1)OCCCO2
7,736 s,O=C(COc1ccc(F)cc1)N1CC(n2cc(COCC3CC3)nn2)C1
8,995 s,CCCS(=O)(=O)N1CC(c2nc(CCOc3cccc(C)c3)no2)C1
9,831 s,O=C(NC1CCCCC1)c1ccc(CN2CCN(C3CCCC3)C(=O)C2=O)cc1
10,764 s,Cn1c(=O)sc2cc(S(=O)(=O)N3CCC(C(=O)N4CCCCC4)CC3)ccc21
11,728 s,O=C(NC1CCCCC1NC(=O)c1cccs1)c1cccs1 (configuration not stated)
12,1070 s,CCOc1ccc(CNC(=O)C2CCCN(c3nccnc3Oc3ccc(C)cc3)C2)cc1OCC (configuration not stated)
13,796 s,O=C(c1ccc2c(c1)OCO2)N1CCCn2nc(-c3cccs3)cc2C1
14,962 s,CC1=C(c2ccc(C)c(C)c2)S(=O)(=O)N=C1N1CCC(NC(=O)CCC(C)C)CC1
15,759 s,CC1CCN(C(=O)Cc2nnc3cc(-c4nc(C5CC5)no4)ccn23)CC1
16,659 s,Cc1ccccc1NC(=O)N1CCCC(Cn2cnc3cccnc32)C1 (configuration not stated)
17,930 s,Cc1ccc2c(c1)N(S(C)(=O)=O)CCC(C(=O)Nc1c(C)cccc1C)O2 (configuration not stated)
18,614 s,COCCNC(=O)C(=O)NCCC(O)C(C)(C)C (configuration not stated)
19,652 s,Cc1ccc(C)c(Sc2cc(N3CCC(C(=O)N4CCC(C(N)=O)CC4)CC3)ncn2)c1
20,578 s,Fc1ccc(Nc2nc(NCC3CCCO3)nc3[nH]ncc23)cc1 (configuration not stated)

# From the METLIN SMRT retention time set (Domingo-Almenara et al. 2019)
